Results on 19 compounds are retold here after US12144874B2, “Synthesis and composition of photodynamic therapeutic agents for the targeted treatment of cancer” (On Target Laboratories, LLC, priority 2015, dated 2024).

In one test the test system is KB cells.
Settings: not given
As for `C=CC1=C(C)c2cc3[nH]c(cc4nc(cc5[nH]c(cc1n2)c(C)c5CCC(=O)OC)C(CCC(=O)NNC(=O)OCCSSCC(NC(=O)c1ccc(NCc2cnc5nc(N)[nH]c(=O)c5n2)cc1)C(=O)O)=C4C)[C@@]1(C)C3=CC=C(C(=O)OC)[C@H]1C(=O)OC` (stereo partly shown) [Compound 81], the “Activity on KB cancer cells in culture, in words” value is on record as “not active”. On to `CC[C@H]1c2cc3[nH]c(c(CC(=O)OC)c4nc(cc5[nH]c(cc(n2)[C@@H]1C)c(C(C)=O)c5C)[C@@H](C)[C@@H]4CCC(=O)NNC(=O)OCCSSC[C@H](NC(=O)CCOCCOCCOCCOCCOCCOCCOCCOCCNC(=O)CC[C@H](NC(=O)c1ccc(NCc2cnc4nc(N)[nH]c(=O)c4n2)cc1)C(=O)O)C(=O)O)c(C(=O)NCCOCCOCCO)c3C` [Compound 88a], for which the “Activity class on KB cancer cells in culture (active / highly active)” value was “active”.

Regarding `C=CC1=C(C)c2cc3[nH]c(cc4nc(cc5[nH]c(cc1n2)c(C)c5CCC(=O)NNC(=O)OCCSSC[C@H](NC(=O)[C@H](CCCNC(=N)N)NC(=O)C[C@@H](NC(=O)[C@H](CCCNC(=N)N)NC(=O)CC[C@H](NC(=O)c1ccc(NCc2cnc5nc(N)[nH]c(=O)c5n2)cc1)C(=O)O)C(=O)O)C(=O)O)C(CCC(=O)OC)=C4C)[C@]1(C)C3=CC=C(C(=O)OC)[C@@H]1C(=O)OC` [Compound 85], the “Activity on KB cancer cells in culture, in words” value was “not active”.

The test is the same for the next values; noted with them: 2 h.
A word on the EC50: it is the concentration that produces a half-maximal response. With `CC[C@H]1c2cc3[nH]c4c(c3C)C(=O)C(C(=O)OC)c4c3nc(cc4[nH]c(cc(n2)[C@@H]1C)c(C(C)=O)c4C)[C@@H](C)[C@@H]3CCC(=O)NCCC[C@H](NC(=O)CC[P+](c1ccccc1)(c1ccccc1)c1ccccc1)C(=O)NCCSSC[C@H](NC(=O)[C@H](CC(=O)NCCS(=O)(=O)O)NC(=O)CC[C@H](NC(=O)c1ccc(NCc2cnc3nc(N)[nH]c(=O)c3n2)cc1)C(=O)O)C(=O)O` (stereo partly shown) [Compound 99], the EC50 was found to be 0.0053 µM. The same measure, in the same setting: the same measure for `CC[C@H]1c2cc3[nH]c4c(c3C)C(=O)C(C(=O)OC)c4c3nc(cc4[nH]c(cc(n2)[C@@H]1C)c(C(C)=O)c4C)[C@@H](C)[C@@H]3CCC(=O)NCCNC(=O)OCCSSC[C@H](NC(=O)[C@H](CC(=O)NCCS(=O)(=O)O)NC(=O)CC[C@H](NC(=O)c1ccc(NCc2cnc3nc(N)[nH]c(=O)c3n2)cc1)C(=O)O)C(=O)O` (stereo partly shown) [Compound 65c]: 0.0116 µM.

`CC[C@H]1c2cc3[nH]c(c(CC(=O)OC)c4nc(cc5[nH]c(cc(n2)[C@@H]1C)c(C(C)=O)c5C)[C@@H](C)[C@@H]4CCC(=O)NNC(=O)OCCSSC[C@H](NC(=O)CCOCCOCCOCCOCCOCCOCCOCCOCCNC(=O)CC[C@H](NC(=O)c1ccc(NCc2cnc4nc(N)[nH]c(=O)c4n2)cc1)C(=O)O)C(=O)O)c(C(=O)NCCOCCOCCO)c3C` [Compound 88a] had a concentration giving a half-maximal response (EC50) of 0.0345 µM.

`CC[C@H]1c2cc3[nH]c(c(CC(=O)OC)c4nc(cc5[nH]c(cc(n2)[C@@H]1C)c(C(C)=O)c5C)[C@@H](C)[C@@H]4CCC(=O)NCCSSC[C@H](NC(=O)[C@H](CC(=O)NCCS(=O)(=O)O)NC(=O)CC[C@H](NC(=O)c1ccc(NCc2cnc4nc(N)[nH]c(=O)c4n2)cc1)C(=O)O)C(=O)O)c(C(=O)N[N+](C)(C)C)c3C` [Compound 101]: the midpoint of the response, the EC50, lay at 0.159 µM.

In the case of `CC[C@H]1c2cc3[nH]c4c(c3C)C(=O)C(C(=O)OC)c4c3nc(cc4[nH]c(cc(n2)[C@@H]1C)c(C(C)=O)c4C)[C@@H](C)[C@@H]3CCC(=O)N[C@@H](CC(=O)N[N+](C)(C)C)C(=O)NNC(=O)OCCSSC[C@H](NC(=O)C[C@H](NC(=O)CC[C@H](NC(=O)c1ccc(NCc2cnc3nc(N)[nH]c(=O)c3n2)cc1)C(=O)O)C(=O)NCCS(=O)(=O)O)C(=O)O` (stereo partly shown) [Compound 95a], a half-maximal response (EC50) required 0.166 µM. The EC50 values of the last two compounds are within 1.5-fold of each other.

The compound `CC[C@H]1c2cc3[nH]c4c(c3C)C(=O)C(C(=O)OC)c4c3nc(cc4[nH]c(cc(n2)[C@@H]1C)c(C(C)=O)c4C)[C@@H](C)[C@@H]3CCC(=O)NCCSSC[C@H](NC(=O)[C@H](CC(=O)NCCS(=O)(=O)O)NC(=O)[C@H](CC(=O)NCCS(=O)(=O)O)NC(=O)CC[C@H](NC(=O)c1ccc(NCc2cnc3nc(N)[nH]c(=O)c3n2)cc1)C(=O)O)C(=O)O` (stereo partly shown) [Compound 105] gave an EC50 of 0.0453 µM. On the same count and under the same terms, the same measure for `CC[C@H]1c2cc3[nH]c4c(c3C)C(=O)C(C(=O)OC)c4c3nc(cc4[nH]c(cc(n2)[C@@H]1C)c(C(C)=O)c4C)[C@@H](C)[C@@H]3CCC(=O)NNC(=O)OCCSSC[C@H](NC(=O)CCOCCOCCOCCOCCOCCOCCOCCOCCNC(=O)CC[C@H](NC(=O)c1ccc(NCc2cnc3nc(N)[nH]c(=O)c3n2)cc1)C(=O)O)C(=O)O` (single isomer, unassigned) [Compound 76d]: 0.339 µM; for `CC[C@H]1c2cc3[nH]c4c(c3C)C(=O)C(C(=O)OC)c4c3nc(cc4[nH]c(cc(n2)[C@@H]1C)c(C(C)=O)c4C)[C@@H](C)[C@@H]3CCC(=O)N[C@@H](CCC(=O)NCCS(=O)(=O)O)C(=O)NCCNC(=O)OCCSSC[C@H](NC(=O)[C@H](CC(=O)NCCS(=O)(=O)O)NC(=O)CC[C@H](NC(=O)c1ccc(NCc2cnc3nc(N)[nH]c(=O)c3n2)cc1)C(=O)O)C(=O)O` (stereo partly shown) [Compound 119]: 0.538 µM; for `CC[C@H]1c2cc3[nH]c4c(c3C)C(=O)C(C(=O)OC)c4c3nc(cc4[nH]c(cc(n2)[C@@H]1C)c(C(C)=O)c4C)[C@@H](C)[C@@H]3CCC(=O)NCCCC(NC(=O)c1ccc(N(C)Cc2cnc3nc(N)nc(N)c3n2)cc1)C(=O)NNC(=O)OCCSSC[C@H](NC(=O)[C@H](CC(=O)NCCS(=O)(=O)O)NC(=O)CC[C@H](NC(=O)c1ccc(NCc2cnc3nc(N)[nH]c(=O)c3n2)cc1)C(=O)O)C(=O)O` (stereo partly shown) [Compound 117]: 2.85 µM.

Compound `CC[C@H]1c2cc3[nH]c(c(CC(=O)OC)c4nc(cc5[nH]c(cc(n2)[C@@H]1C)c(C(C)=O)c5C)[C@@H](C)[C@@H]4CCC(=O)NNC(=O)OCCSSC[C@H](NC(=O)CCOCCOCCOCCOCCOCCOCCNC(=O)CC[C@H](NC(=O)c1ccc(NCc2cnc4nc(N)[nH]c(=O)c4n2)cc1)C(=O)O)C(=O)O)c(C(=O)N[N+](C)(C)C)c3C` [Compound 87b] yielded a concentration for a half-maximal effect (EC50) of 6.04 µM.

The test is the same for the next values; noted with them: Table 1; non-targeted PDT agents, free drugs in DMSO, 2 h incubation, laser 6 mW/cm^2, 12 J/cm^2, 32 min, then 24 h.
Regarding `Oc1cccc(-c2c3nc(c(-c4cccc(O)c4)c4ccc([nH]4)c(-c4cccc(O)c4)c4nc(c(-c5cccc(O)c5)c5ccc2[nH]5)CC4)C=C3)c1` [Compound 6, Foscan, reference compound], the half-maximal effective concentration (EC50) result is reported as “Not active”.

Still in this test, the particulars now being: Table 2; mitochondrial-targeted modified PDT agents, free drugs in DMSO, 2 h incubation, laser 32 min, then 24 h.
As to `CC[C@H]1c2cc3[nH]c4c(c3C)C(=O)C(C(=O)OC)c4c3nc(cc4[nH]c(cc(n2)[C@@H]1C)c(C(C)=O)c4C)[C@@H](C)[C@@H]3CCC(=O)N[C@@H](CCC(=O)NC1C(O)OC(CO)C(O)C1O)C(=O)O` (stereo partly shown) [Compound 19], the EC50 was found to be 0.55 µM. Take `CC[C@H]1c2cc3[nH]c4c(c3C)C(=O)C(C(=O)OC)c4c3nc(cc4[nH]c(cc(n2)[C@@H]1C)c(C(C)=O)c4C)[C@@H](C)[C@@H]3CCC(=O)NCCC[C@@H](C(=O)OC(C)(C)C)[N+](C)(C)C` (stereo partly shown) [Compound 11b]: the concentration for a half-maximal effect (EC50) was 0.0231 µM.

Regarding `CC[C@H]1c2cc3[nH]c4c(c3C)C(=O)C(C(=O)OC)c4c3nc(cc4[nH]c(cc(n2)[C@@H]1C)c(C(C)=O)c4C)[C@@H](C)[C@@H]3CCC(=O)NCCC[C@@H](C(=O)O)[N+](C)(C)C` (stereo partly shown) [Compound 12b], the 50% effective concentration (EC50) came to 0.0154 µM. The EC50 values of the last two compounds are within 1.5-fold of each other.

The test is the same for the next values; noted with them: Table 3; nucleus-targeted modified PDT agents, free drugs in DMSO, 2 h incubation, laser 32 min, then 24 h.
Usually IC50 stands for the midpoint of a concentration-inhibition curve. A high value points to a need for much substance. With `CC[C@H]1c2cc3[nH]c4c(c3C)C(=O)C(C(=O)OC)c4c3nc(cc4[nH]c(cc(n2)[C@@H]1C)c(C(C)=O)c4C)[C@@H](C)[C@@H]3CCC(=O)NC(Cc1ccc(N(CCCl)CCCl)cc1)C(=O)O` (stereo partly shown) [Compound 41], the concentration for half-maximal inhibition (IC50) was 0.068 µM. Same read-out and setting: the same measure for `CC[C@H]1c2cc3[nH]c4c(c3C)C(=O)C(C(=O)OC)c4c3nc(cc4[nH]c(cc(n2)[C@@H]1C)c(C(C)=O)c4C)[C@@H](C)[C@@H]3CCC(=O)N[C@@H](CC(=O)NCCS(=O)(=O)O)C(=O)O` (stereo partly shown) [Compound 40]: 4.08 µM; for `CC[C@H]1C2=Cc3c(C)c(C(=O)NNC(=O)Nc4cccc(S(=O)(=O)O)c4)c4[n]3[Pd][n]3c(c(C)c(C(C)=O)c3=CC(=N2)[C@@H]1C)=CC1=NC(=C4CC(=O)OC)[C@@H](CCC(=O)O)[C@@H]1C` [Compound 39]: “Not active*”.

Still in this test, the particulars now being: Table 8; folate-targeted releasable visudyne conjugates.
Take `C=CC1=C(C)c2cc3[nH]c(cc4nc(cc5[nH]c(cc1n2)c(C)c5CCC(=O)OC)C(CCC(=O)NNC(=O)OCCSSCC(NC(=O)c1ccc(NCc2cnc5nc(N)[nH]c(=O)c5n2)cc1)C(=O)O)=C4C)[C@@]1(C)C3=CC=C(C(=O)OC)[C@H]1C(=O)OC` (stereo partly shown) [Compound 81]: the EC50 result is on record as “Not active*”. On the same count and under the same terms, the same measure for `C=CC1=C(C)c2cc3[nH]c(cc4nc(cc5[nH]c(cc1n2)c(C)c5CCC(=O)NNC(=O)OCCSSC[C@H](NC(=O)[C@H](CCCNC(=N)N)NC(=O)C[C@@H](NC(=O)[C@H](CCCNC(=N)N)NC(=O)CC[C@H](NC(=O)c1ccc(NCc2cnc5nc(N)[nH]c(=O)c5n2)cc1)C(=O)O)C(=O)O)C(=O)O)C(CCC(=O)OC)=C4C)[C@]1(C)C3=CC=C(C(=O)OC)[C@@H]1C(=O)OC` [Compound 85]: “Not active*”.
